According to ChEMBL document CHEMBL4665541, “Search for new therapeutic options for the uncommon pathogen Mycobacterium chimaera: an open drug discovery approach” (Lancet Microbe, 2021):

Assays:
Format in all cases: functional, organism-based
Set-up in all cases: conc 20 uM
[1] = tested on: Mycobacterium intracellulare subsp. chimaera; assay: (§1) Inhibition of mycobacterial growth using the resazurin microtitre cell viability assay (REMA), compounds at final concentration of 20 µM (2% v/v DMSO). Hits were classed as compounds that inhibited bacterial growth by 70% or more compared to drug-free controls.; conditions: NCTC13781
[2] = tested on: Mycobacteroides abscessus; assay: as §1; conditions: ATCC19977
[3] = tested on: Mycobacterium tuberculosis; assay: as §1; conditions: H37Rv

Substance	Survival [1]	Survival [2]	Survival [3]
MMV688941	104%	120%	69.8%
MMV688180	101%	116%	94%
MMV020136	88.5%	129%	88.7%
MMV687801	31.5%	114%	58.9%
MMV676386	90.1%	107%	24%
MMV676597	99.5%	113%	98%
MMV1028806	100%	116%	26.7%
MMV688845	1.95%	24.1%	6.47%
MMV688466	106%	115%	93.2%
MMV688766	104%	111%	88.4%
MMV688854	111%	114%	111%
MMV688543	97.2%	101%	89%
MMV688178	97.1%	107%	103%
MMV688410	105%	105%	95.3%
MMV688942	98.6%	112%	85.1%
MMV019838	81.2%	124%	84.2%
MMV688548	101%	115%	91.6%
MMV688797	96.5%	113%	80.5%
MMV393995	95.8%	93.9%	46.2%
MMV020982	103%	124%	84.3%
MMV676260	97.1%	108%	84.8%
MMV687706	92.7%	108%	99.8%
MMV688283	112%	116%	89.4%
MMV688372	112%	104%	88.8%
MMV687803	10.8%	24.5%	17.4%
MMV020710	95.7%	123%	86.9%

Substance	Survival [1]	Survival [2]	Survival [3]
MMV688934	104%	112%	101%
MMV011691	103%	104%	86.2%
MMV676524	97%	114%	23.4%
MMV009054	100%	105%	98.7%
MMV688891	113%	109%	101%
MMV001561	103%	103%	91.3%
MMV676539	95.1%	99.7%	29.7%
MMV688474	100%	106%	94%
MMV688124	107%	116%	94.7%
MMV085230	111%	118%	93.7%
MMV676389	98.7%	113%	51.7%
MMV021660	107%	102%	67.5%
MMV026550	98.7%	111%	88.2%
MMV676468	96.9%	103%	10.5%
MMV021375	93.8%	111%	89.6%
MMV675968	1.74%	87.6%	15%
MMV652003	97.2%	109%	112%
MMV676379	87.9%	116%	98%
MMV393144	85.6%	103%	92.6%
MMV006833	115%	126%	93.7%
MMV000858	118%	113%	105%
MMV688774	79.3%	107%	100%
MMV461553	7.21%	103%	42.2%
MMV676492	97.8%	101%	83.1%
MMV688472	92.3%	103%	98%
MMV020512	109%	116%	104%

Substance	Survival [1]	Survival [2]	Survival [3]
MMV676501	91.8%	104%	14%
MMV676526	74.8%	103%	97.3%
MMV676477	73.1%	111%	4.54%
MMV024114	106%	121%	126%
MMV676377	77.7%	108%	50.2%
MMV688313	104%	94.8%	102%
MMV020152	91.2%	118%	78.2%
MMV020537	62.7%	105%	94.1%
MMV676555	39%	123%	71.2%
MMV689243	110%	113%	82.6%
MMV022478	3.7%	13.3%	3.81%
MMV006239	94.8%	112%	86.9%
MMV000062	85.2%	109%	18.8%
MMV668727	96.8%	102%	100%
MMV688352	103%	107%	89.6%
MMV688509	110%	119%	91.6%
MMV688980	92%	87.1%	99.6%
MMV676461	104%	114%	78.3%
MMV020623	111%	118%	107%
MMV011511	104%	112%	88%
MMV688508	-0.22%	18.6%	7.31%
MMV153413	9.37%	111%	26.5%
MMV688852	103%	115%	107%
MMV688761	108%	113%	108%
MMV676053	105%	97.1%	89.4%
MMV021013	88%	108%	100%

Substance	Survival [1]	Survival [2]	Survival [3]
MMV084603	81.6%	112%	98.8%
MMV161996	108%	103%	119%
MMV637229	96.4%	112%	87%
MMV689028	127%	121%	121%
MMV688361	88.9%	116%	92.9%
MMV023953	93.7%	104%	100%
MMV099637	95.3%	98.4%	109%
MMV689480	95.5%	112%	98.5%
MMV688557	101%	101%	95.7%
MMV676162	112%	117%	93.3%
MMV687699	93.8%	114%	53.6%
MMV020081	87.7%	118%	89.4%
MMV024397	98.2%	118%	88.8%
MMV690102	111%	113%	106%
MMV634140	84%	110%	81%
MMV1030799	99.7%	121%	18.8%
MMV688350	92.5%	102%	105%
MMV688274	112%	113%	86%
MMV001059	106%	105%	89.4%
MMV024443	101%	94.5%	102%
MMV001499	101%	125%	93.2%
MMV023183	104%	119%	88.3%
MMV000063	99.8%	120%	90.6%
